Measurements from patent US10570121B2, “Substituted dihydroisoquinolinone compounds” (priority 2014, dated 2020).
pIC50, pKi: −log10 of the molar value. Where two headings read alike, the source gives them in different places.

Key:
Type in all cases: biochemical
WT EZH2 [1] = target: T1, WT EZH2 (Homo sapiens (Human), UniProt Q15910); test: WT EZH2 nucleosome assay; conditions: PRC2 4-protein complex 4 nM, 1.5 μM SAM, HeLa oligonucleosomes; for pIC50: read-out: WT EZH2 Nucleosome assay IC50; for IC50: WT EZH2 Nucleosome assay IC50 (μM)
Experimental: The genes for EZH2, EED, SUZ12, and RBBP4 proteins were cloned into pBacPAK9 vectors (Clontech). RBBP4 was FLAG tagged on the N-terminal end. The baculovirus expressions of these proteins were used to co-infect SF9 insect cells. Insect cell pellets were lysed in a buffer containing 25 mM Tris pH8.0, 300 mM NaCl, 0.5 mM TCEP, complete EDTA-free protease inhibitor (Roche), 0.1% NP-40. The supernatant from the lysate was incubated with FLAG® M2 antibody resin (Sigma). The resin was washed on the chromatography column and eluted with 0.2 mg/ml FLAG peptide. The elute was incubated with omnicleave nucleases (Epicentre Technologies) at 4° C. overnight, then concentrated and loaded onto a Superdex 200 (GE Healthcare) column. The Superdex 200 column was eluted with 25 mM Tris pH8.0, 150 mM NaCl, 0.5 mM TCEP. Fractions containing the PRC2 complex were pooled.
A. Compound preparation • 1.
B. Reagent preparation • 1. […] Dilute TCA to 20% in DI water
C. Enzyme reaction • 1. […] Some compounds were tested under high SAM conditions.
D. Data analysis • 1. IC50 values were determined by fitting the data to a 4-parameter IC50 equation using proprietary curve fitting software. • 2. For compounds tested under high SAM conditions, Ki^app values were obtained by fitting the dose response curve to a model for competitive inhibition using proprietary curve fitting software. Preparation of HeLa Oligonucleosomes: Reagents • Cell Pellet: 15 L HeLa S3 (Accelgen)+6 L HeLa S3 (in house) • Mnase (Worthington Biochemicals) Equipment • SW-28 Rotor • Dounce Homogenizer/B Pestle Buffers • Lysis: 20 mM Hepes pH 7.5, 0.25M Sucrose, 3 mM MgCl2, 0.5% Nonidet P-40, 0.5 mM TCEP, 1 Roche Protease Tablet • B: 20 mM Hepes pH7.5, 3 mM MgCl2, 0.5 mM EDTA, 0.5 mM TCEP, 1 Roche Protease Tablet • MSB: 20 mM Hepes pH7.5, 0.4 M NaCl, 1 mM EDTA, 5% v/v Glycerol, 0.5 mM TCEP, 0.2 mM PMSF • LSB: 20 mM Hepes pH7.5, 0.1M NaCl, 1 mM EDTA, 0.5 mM TCEP, 0.2 mM PMSF • NG: 20 mM Hepes pH7.5, 1 mM EDTA, 0.4 m NaCl, 0.2 mM PMSF, 0.5 mM TCEP • Storage: 20 mM Hepes pH7.5, 1 mM EDTA, 10% Glycerol, 0.2 mM PMSF, 0.5 mM TCEP Protocol

EZH2 Mutant Y641N = EZH2 Mutant Y641N (Homo sapiens (Human), UniProt Q15910, Y641N); test: EZH2 Mutant Y641N nucleosome assay; conditions: PRC2 4-protein complex 6 nM, 1.5 μM SAM, HeLa oligonucleosomes; for pIC50: read-out: EZH2 Mutant Y641N Nucleosome assay IC50; for IC50: EZH2 Mutant Y641N Nucleosome assay IC50 (μM)
WT EZH2 [2] = target: T1, WT EZH2; test: WT EZH2 nucleosome assay (10X SAM, high SAM conditions); conditions: 15 uM SAM, Ki app from competitive inhibition fit; for pKi: read-out: WT EZH2 Nucleosome assay (10X SAM) Ki

EZH2 Mutant Y641N, sequence (Q15910 whole entry Y641N, looked up): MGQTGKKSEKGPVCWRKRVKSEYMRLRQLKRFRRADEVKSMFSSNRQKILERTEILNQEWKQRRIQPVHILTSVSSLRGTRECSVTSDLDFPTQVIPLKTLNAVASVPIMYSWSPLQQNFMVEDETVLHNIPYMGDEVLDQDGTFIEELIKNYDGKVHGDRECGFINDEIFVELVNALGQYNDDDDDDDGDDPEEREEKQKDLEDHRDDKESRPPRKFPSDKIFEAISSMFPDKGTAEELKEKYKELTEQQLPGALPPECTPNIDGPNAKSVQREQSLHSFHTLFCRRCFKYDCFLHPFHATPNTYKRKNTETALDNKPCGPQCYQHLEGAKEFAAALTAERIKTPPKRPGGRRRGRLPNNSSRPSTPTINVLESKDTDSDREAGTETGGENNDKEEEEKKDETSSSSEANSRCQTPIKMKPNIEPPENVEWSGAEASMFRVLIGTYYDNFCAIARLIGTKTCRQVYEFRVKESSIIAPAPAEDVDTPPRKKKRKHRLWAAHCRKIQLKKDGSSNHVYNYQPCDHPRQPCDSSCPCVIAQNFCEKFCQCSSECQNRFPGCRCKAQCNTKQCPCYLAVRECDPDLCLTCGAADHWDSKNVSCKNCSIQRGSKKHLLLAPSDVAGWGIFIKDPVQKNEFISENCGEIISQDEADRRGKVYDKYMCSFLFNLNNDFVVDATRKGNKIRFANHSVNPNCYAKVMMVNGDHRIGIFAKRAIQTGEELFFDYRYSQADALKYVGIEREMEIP
EZH2 Mutant Y641N, sequence (O75530 whole entry partner, looked up): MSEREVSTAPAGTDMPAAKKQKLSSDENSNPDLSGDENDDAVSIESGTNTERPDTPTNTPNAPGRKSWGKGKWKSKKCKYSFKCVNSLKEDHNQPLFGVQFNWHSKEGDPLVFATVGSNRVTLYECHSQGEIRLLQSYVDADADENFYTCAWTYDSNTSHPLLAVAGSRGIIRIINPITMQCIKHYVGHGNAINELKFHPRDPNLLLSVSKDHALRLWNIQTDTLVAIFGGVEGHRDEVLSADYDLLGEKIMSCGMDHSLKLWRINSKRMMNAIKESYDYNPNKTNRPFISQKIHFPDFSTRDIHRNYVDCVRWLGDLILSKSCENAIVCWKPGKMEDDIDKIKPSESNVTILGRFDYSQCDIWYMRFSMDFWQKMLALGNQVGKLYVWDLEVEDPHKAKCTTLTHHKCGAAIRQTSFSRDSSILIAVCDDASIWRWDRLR
EZH2 Mutant Y641N, sequence (Q15022 whole entry partner, looked up): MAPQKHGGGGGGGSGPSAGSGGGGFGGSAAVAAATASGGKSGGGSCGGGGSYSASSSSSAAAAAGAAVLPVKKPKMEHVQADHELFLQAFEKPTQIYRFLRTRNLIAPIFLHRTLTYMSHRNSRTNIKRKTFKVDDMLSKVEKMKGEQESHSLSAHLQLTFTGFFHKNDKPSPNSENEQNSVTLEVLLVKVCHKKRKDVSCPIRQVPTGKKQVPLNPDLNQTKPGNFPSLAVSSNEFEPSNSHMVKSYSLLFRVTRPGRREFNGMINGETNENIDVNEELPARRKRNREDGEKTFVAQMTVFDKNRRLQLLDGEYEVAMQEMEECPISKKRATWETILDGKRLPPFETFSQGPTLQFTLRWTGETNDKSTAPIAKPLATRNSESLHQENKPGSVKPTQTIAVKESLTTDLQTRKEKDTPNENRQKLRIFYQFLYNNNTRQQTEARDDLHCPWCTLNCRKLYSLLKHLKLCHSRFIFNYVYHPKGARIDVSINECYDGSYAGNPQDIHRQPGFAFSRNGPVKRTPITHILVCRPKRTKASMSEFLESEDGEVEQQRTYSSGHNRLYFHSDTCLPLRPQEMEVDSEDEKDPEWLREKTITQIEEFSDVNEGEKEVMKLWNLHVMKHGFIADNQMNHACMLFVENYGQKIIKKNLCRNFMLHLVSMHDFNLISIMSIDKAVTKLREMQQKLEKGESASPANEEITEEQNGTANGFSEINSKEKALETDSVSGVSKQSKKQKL
EZH2 Mutant Y641N, sequence (Q09028 whole entry partner, looked up): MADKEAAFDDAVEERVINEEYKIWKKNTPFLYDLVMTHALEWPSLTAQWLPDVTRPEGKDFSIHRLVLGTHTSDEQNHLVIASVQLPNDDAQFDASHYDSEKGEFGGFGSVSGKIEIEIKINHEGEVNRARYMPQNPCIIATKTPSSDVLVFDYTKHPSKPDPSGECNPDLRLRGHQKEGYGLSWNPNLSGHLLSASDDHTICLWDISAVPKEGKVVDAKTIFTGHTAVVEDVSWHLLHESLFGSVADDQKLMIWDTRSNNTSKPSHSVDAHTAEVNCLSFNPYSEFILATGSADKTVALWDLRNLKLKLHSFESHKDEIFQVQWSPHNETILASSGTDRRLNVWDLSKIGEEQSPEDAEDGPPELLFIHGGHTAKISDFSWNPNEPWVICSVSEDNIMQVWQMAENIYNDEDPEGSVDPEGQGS
T1 sequence (Q15910 whole entry, looked up): as the sequence (Q15910 whole entry Y641N, looked up) above, with N641Y counted along it
T1 sequence (O75530 whole entry partner, looked up): as the sequence (O75530 whole entry partner, looked up) above
T1 sequence (Q15022 whole entry partner, looked up): as the sequence (Q15022 whole entry partner, looked up) above
T1 sequence (Q09028 whole entry partner, looked up): as the sequence (Q09028 whole entry partner, looked up) above

Compound | pIC50 (WT EZH2 [1]) | pIC50 (EZH2 Mutant Y641N) | IC50 (WT EZH2 [1]) [µM] | IC50 (EZH2 Mutant Y641N) [µM] | Ki (WT EZH2 [2]; WT EZH2 Nucleosome assay (10X SAM) Ki (μM)) [µM] | pKi (WT EZH2 [2])
COC(CO)c1cc(Cl)c2c(c1Cl)C(=O)N(Cc1c(C)cc(C)[nH]c1=O)CC2 (single isomer, unassigned) [Example 11, 5,8-dichloro-2-[(4,6-dimethyl-2-oxo-1,2-dihydropyridin-3-yl)methyl]-7-(2-hydroxy-1-methoxyethyl)-3,4-dihydroisoquinolin-1(2H)-one] | 7.42 | 6.76 | – | – | – | –
CCC(O)c1cc(Cl)c2c(c1Cl)C(=O)N(Cc1c(C)cc(C)[nH]c1=O)CC2 (single isomer, unassigned) [Example 27] | – | – | 0.037 | 0.3 | – | –
CCC(O)c1cc(Cl)c2c(c1Cl)C(=O)N(Cc1c(C)cc(C)[nH]c1=O)CC2 (single isomer, unassigned) [Example 28] | – | – | 0.126 | 1.89 | – | –
CCC(CO)c1cc(Cl)c2c(c1Cl)C(=O)N(Cc1c(C)cc(C)[nH]c1=O)CC2 (single isomer, unassigned) [Example 29] | – | – | 0.017 | 0.107 | – | –
CCC(CO)c1cc(Cl)c2c(c1Cl)C(=O)N(Cc1c(C)cc(C)[nH]c1=O)CC2 (single isomer, unassigned) [Example 30] | – | – | 0.004 | 0.02 | – | –
COC(c1cc(Cl)c2c(c1Cl)C(=O)N(Cc1c(C)cc(C)[nH]c1=O)CC2)C1CCN(C(=O)CO)CC1 (single isomer, unassigned) [Example 35, 5,8-dichloro-2-[(4,6-dimethyl-2-oxo-1,2-dihydropyridin-3-yl)methyl]-7-{[1-(hydroxyacetyl)piperidin-4-yl](methoxy)methyl}-3,4-dihydroisoquinolin-1(2H)-one] | – | – | 0.002 | 0.002 | – | –
COC(c1cc(Cl)c2c(c1Cl)C(=O)N(Cc1c(C)cc(C)[nH]c1=O)CC2)C1CCN(C(=O)CO)CC1 (single isomer, unassigned) [Example 36, 5,8-dichloro-2-[(4,6-dimethyl-2-oxo-1,2-dihydropyridin-3-yl)methyl]-7-{[1-(hydroxyacetyl)piperidin-4-yl](methoxy)methyl}-3,4-dihydroisoquinolin-1(2H)-one] | – | – | 0.105 | 0.443 | 0.136 | –
Cc1cc(C)c(CN2CCc3c(Cl)cc(C(CO)C4CCOCC4)c(Cl)c3C2=O)c(=O)[nH]1 (single isomer, unassigned) [Example 37] | – | – | 0.001 | 0.002 | – | –
Cc1cc(C)c(CN2CCc3c(Cl)cc(C(CO)C4CCOCC4)c(Cl)c3C2=O)c(=O)[nH]1 (single isomer, unassigned) [Example 38] | – | – | 0.378 | 0.74 | – | –
Cc1cc(C)c(CN2CCc3c(Cl)cc(C(C)CCO)c(Cl)c3C2=O)c(=O)[nH]1 (single isomer, unassigned) [Example 39] | 7.40 | 6.62 | – | – | – | –
Cc1cc(C)c(CN2CCc3c(Cl)cc(C(C)CCO)c(Cl)c3C2=O)c(=O)[nH]1 (single isomer, unassigned) [Example 40] | 8.22 | 7.62 | – | – | – | –
Cc1cc(C)c(CN2CCc3c(Cl)cc(C([C@H](C)O)[C@@H](C)O)c(Cl)c3C2=O)c(=O)[nH]1 (single isomer, unassigned) [Example 42] | 7.92 | 6.99 | – | – | – | –
Cc1cc(C)c(CN2CCc3c(Cl)cc([C@H](CO)[C@H]4CCOC4)c(Cl)c3C2=O)c(=O)[nH]1 [Example 1, 5,8-dichloro-2-[(4,6-dimethyl-2-oxo-1,2-dihydropyridin-3-yl)methyl]-7-{(1R)-2-hydroxy-1-[(3R)-tetrahydrofuran-3-yl]ethyl}-3,4-dihydroisoquinolin-1(2H)-one] | 9.00 | 8.52 | – | – | – | –
Cc1cc(C)c(CN2CCc3c(Cl)cc(C(C)C)c(Cl)c3C2=O)c(=O)[nH]1 [Example 14, 5,8-dichloro-2-[(4,6-dimethyl-2-oxo-1,2-dihydropyridin-3-yl)methyl]-7-(propan-2-yl)-3,4-dihydroisoquinolin-1(2H)-one] | 8.10 | 7.40 | – | – | – | –
Cc1cc(C)c(CN2CCc3c(Cl)cc([C@H](C)CO)c(Cl)c3C2=O)c(=O)[nH]1 [Example 18] | 6.90 | 6.00 | – | – | – | 6.94
Cc1cc(C)c(CN2CCc3c(Cl)cc([C@@H](C)CO)c(Cl)c3C2=O)c(=O)[nH]1 [Example 19] | 7.89 | 6.88 | – | – | – | 8.00
Cc1cc(C)c(CN2CCc3c(Cl)cc(CC(=O)O)c(Cl)c3C2=O)c(=O)[nH]1 [Example 22] | 5.11 | 4.02 | – | – | – | –
Cc1cc(C)c(CN2CCc3c(Cl)cc(CC4CCN(C(=O)CO)CC4)c(Cl)c3C2=O)c(=O)[nH]1 [Example 23] | 8.05 | 7.17 | – | – | – | –
